The numbers were not newly measured in US20240065974A1, “ORAL THIN FILM” (LTS Lohmann Therapie-Systeme AG, priority 2021, published 2024), which cites them from elsewhere.

The conditions of this data set: compared with (R)-ketamine.

Consider `CNC1(c2ccccc2Cl)CCCCC1=O` (racemic) [(S)-ketamine, (S)-(±)-2-(2-chlorophenyl)-2-(methylamino)cyclohexan-1-one], for which the “Analgesic and anaesthetic potency relative to the (R) form” value is given as “approximately three times higher”.
